The subject of the assay is CD2F1 mice, L1210 leukemia ip, survival T/C. In words: NCI In Vivo Anticancer Drug Screen. Data for tumor model L1210 Leukemia (intraperitoneal) in CD2F1 (CDF1) mice. The settings on record: higher = longer survival. Put shortly: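 Mice carrying a transplanted tumor received test compound or vehicle alone. The value is the measurement in the treated group divided by that in the vehicle-treated control group.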

Where [1] appears, read: endpoint: mean survival time, dose: 50.0 mg/kg/injection, schedule: Q01DX001 (ip), vehicle: saline with Tween-80.
The mark [2] stands for this setting: endpoint: mean survival time, dose: 100.0 mg/kg/injection, schedule: Q01DX001 (ip), vehicle: saline with Tween-80.
The mark [3] stands for this setting: endpoint: mean survival time, dose: 200.0 mg/kg/injection, schedule: Q01DX001 (ip), vehicle: saline with Tween-80.
Where [4] appears, read: endpoint: mean survival time, dose: 100.0 mg/kg/injection, schedule: Q01DX009 (ip), vehicle: saline with Tween-80.
Where [5] appears, read: endpoint: mean survival time, dose: 200.0 mg/kg/injection, schedule: Q01DX009 (ip), vehicle: saline with Tween-80.
[6] abbreviates: endpoint: mean survival time, dose: 100.0 mg/kg/injection, schedule: Q04DX003 (ip), vehicle: saline with Tween-80.
Setting [7] is: endpoint: mean survival time, dose: 100.0 mg/kg/injection, schedule: Q04DX003 (ip), vehicle: other.
The mark [8] stands for this setting: endpoint: mean survival time, dose: 200.0 mg/kg/injection, schedule: Q04DX003 (ip), vehicle: other.

Values joined by “and” are separate entries in the source; they are usually repeats but may differ in a detail not shown here. Identical values can stand only once. Inconclusive results and toxic doses are left out.

Turning to `CCCCCCCCCCCCCCCCOC(=O)c1cc([N+](=O)[O-])cc([N+](=O)[O-])c1Sc1ncnc2nc[nH]c12`, the T/C runs as follows: (endpoint: mean survival time, dose: 0.63 mg/kg/injection, schedule: Q01DX005 (ip), vehicle: other) 105 % of control; (endpoint: mean survival time, dose: 1.25 mg/kg/injection, schedule: Q01DX005 (ip), vehicle: other) 108 % of control; (endpoint: mean survival time, dose: 2.5 mg/kg/injection, schedule: Q01DX005 (ip), vehicle: other) 113 % of control; (endpoint: mean survival time, dose: 5.0 mg/kg/injection, schedule: Q01DX005 (ip), vehicle: other) 113 % of control; (endpoint: mean survival time, dose: 10.0 mg/kg/injection, schedule: Q01DX005 (ip), vehicle: other) 120 % of control; (endpoint: mean survival time, dose: 12.5 mg/kg/injection, schedule: Q01DX005 (ip), vehicle: other) 109 % of control. The T/C was 106 % of control (endpoint: mean survival time, dose: 15.7 mg/kg/injection, schedule: Q01DX005 (ip), vehicle: other); 117 % of control and 112 % of control (endpoint: mean survival time, dose: 25.0 mg/kg/injection, schedule: Q01DX005 (ip), vehicle: other); 124 % of control (endpoint: mean survival time, dose: 31.3 mg/kg/injection, schedule: Q01DX005 (ip), vehicle: other); 115 % of control and 122 % of control (endpoint: mean survival time, dose: 50.0 mg/kg/injection, schedule: Q01DX005 (ip), vehicle: other); 116 % of control (endpoint: mean survival time, dose: 100.0 mg/kg/injection, schedule: Q01DX005 (ip), vehicle: other); 118 % of control (endpoint: mean survival time, dose: 400.0 mg/kg/injection, schedule: Q01DX005 (ip), vehicle: other).

Regarding `IC1CCC[N-]C1.IC1CCC[N-]C1.[Cl][Pt+2][Cl]` (configuration not stated), the T/C is, setting by setting: under setting [1], 95 % of control; under setting [2], 93 % of control; under setting [3], 95 % of control.

`O=[N+]([O-])c1ccc(S(=O)(=O)Cc2ccccc2)c([N+](=O)[O-])c1`: the T/C is 98 % of control (endpoint: mean survival time, dose: 75.0 mg/kg/injection, schedule: Q01DX001 (ip), vehicle: other); 93 % of control (endpoint: mean survival time, dose: 150.0 mg/kg/injection, schedule: Q01DX001 (ip), vehicle: other); 106 % of control (endpoint: mean survival time, dose: 300.0 mg/kg/injection, schedule: Q01DX001 (ip), vehicle: other).

As to `Nc1ccn(C2OC(C(OC3OC(CO)C(O)C(N)C3O)C(O)C(O)C(O)C(O)CO)C(N)C(O)C2O)c(=O)n1` (configuration not stated), the T/C is 104 % of control (endpoint: mean survival time, dose: 0.1 mg/kg/injection, schedule: Q01DX005 (ip), vehicle: saline); 102 % of control (endpoint: mean survival time, dose: 0.2 mg/kg/injection, schedule: Q01DX005 (ip), vehicle: saline); 101 % of control (endpoint: mean survival time, dose: 0.4 mg/kg/injection, schedule: Q01DX005 (ip), vehicle: saline).

`Nc1cccc2ccc(S(=O)(=O)O)cc12`: the T/C is 101 % of control under setting [4] and 106 % of control under setting [5].

On to `OCc1ccc(Cl)cc1Cl`, for which the T/C under setting [4] is 93 % of control and the T/C under setting [5] was 92 % of control.

Consider `CC(C)Cc1ccc(OC(=O)Nc2ccc(Cl)cc2)cc1`, for which the T/C by setting is: (endpoint: mean survival time, dose: 25.0 mg/kg/injection, schedule: Q01DX009 (ip), vehicle: saline with Tween-80) 106 % of control; (endpoint: mean survival time, dose: 50.0 mg/kg/injection, schedule: Q01DX009 (ip), vehicle: saline with Tween-80) 94 % of control; under setting [4], 95 % of control; under setting [6], 86 % of control.

As to `OC1CCC2=C(C1)C1CCC2C1` (configuration not stated), the T/C was 98 % of control (endpoint: mean survival time, dose: 12.5 mg/kg/injection, schedule: Q01DX009 (ip), vehicle: saline); 103 % of control (endpoint: mean survival time, dose: 25.0 mg/kg/injection, schedule: Q01DX009 (ip), vehicle: saline); 97 % of control (endpoint: mean survival time, dose: 50.0 mg/kg/injection, schedule: Q01DX009 (ip), vehicle: saline).

Turning to `CN(C)N=Nc1ccc(/C=C/C(=O)O)cc1`, the T/C is, setting by setting: (endpoint: mean survival time, dose: 12.5 mg/kg/injection, schedule: Q01DX009 (ip), vehicle: Klucel (hydroxypropylcellulose) (HPC)) 105 % of control; (endpoint: mean survival time, dose: 25.0 mg/kg/injection, schedule: Q01DX009 (ip), vehicle: Klucel (hydroxypropylcellulose) (HPC)) 111 % of control; (endpoint: mean survival time, dose: 100.0 mg/kg/injection, schedule: Q01DX009 (ip), vehicle: Klucel (hydroxypropylcellulose) (HPC)) 150 % of control.

Take `CN1c2ccccc2C2CC(CC#N)CC(=O)C21` (configuration not stated): the T/C is 96 % of control under setting [2]; 93 % of control under setting [3]; 95 % of control (endpoint: mean survival time, dose: 400.0 mg/kg/injection, schedule: Q01DX001 (ip), vehicle: saline with Tween-80).

As for `CC1(C)N=C(N)N=C(N)N1c1ccc(OCCCCNC(=O)c2cccc(S(=O)(=O)F)c2)c(Cl)c1`, the T/C reads like this: (endpoint: mean survival time, dose: 5.0 mg/kg/injection, schedule: Q01DX001 (ip), vehicle: saline with Tween-80) 105 % of control; (endpoint: mean survival time, dose: 5.0 mg/kg/injection, schedule: Q01DX009 (ip), vehicle: saline) 102 % of control; (endpoint: mean survival time, dose: 10.0 mg/kg/injection, schedule: Q01DX001 (ip), vehicle: saline with Tween-80) 95 % of control; (endpoint: mean survival time, dose: 10.0 mg/kg/injection, schedule: Q01DX009 (ip), vehicle: saline) 98 % of control; (endpoint: mean survival time, dose: 20.0 mg/kg/injection, schedule: Q01DX001 (ip), vehicle: saline with Tween-80) 94 % of control; (endpoint: mean survival time, dose: 20.0 mg/kg/injection, schedule: Q01DX009 (ip), vehicle: saline) 98 % of control.

As for `C=CC1CC2C=CC1C2` (configuration not stated) (tested in a mixture with another compound), the T/C is, setting by setting: (endpoint: mean survival time, dose: 80.5 mg/kg/injection, schedule: Q01DX009 (ip), vehicle: saline with Tween-80) 106 % of control; (endpoint: mean survival time, dose: 161.0 mg/kg/injection, schedule: Q01DX009 (ip), vehicle: saline with Tween-80) 90 % of control.

With `CC(C)(C)c1cc(O)c(O)c(C(C)(C)C)c1`, the T/C is 101 % of control under setting [7] and 95 % of control under setting [8].

With `O=C1CC2C3C=CC4C3CC2C14` (configuration not stated), the T/C (endpoint: mean survival time, dose: 75.0 mg/kg/injection, schedule: Q01DX001 (ip), vehicle: saline with Tween-80) is 97 % of control and the T/C (endpoint: mean survival time, dose: 150.0 mg/kg/injection, schedule: Q01DX001 (ip), vehicle: saline with Tween-80) was 101 % of control.

In the case of `O=C1CN(CO)C(=O)N1CO`, the T/C was 110 % of control (endpoint: median survival time, dose: 25.0 mg/kg/injection, schedule: Q01DX009 (ip), vehicle: Klucel (hydroxypropylcellulose) (HPC)); 110 % of control (endpoint: median survival time, dose: 50.0 mg/kg/injection, schedule: Q01DX009 (ip), vehicle: Klucel (hydroxypropylcellulose) (HPC)); 116 % of control (endpoint: median survival time, dose: 100.0 mg/kg/injection, schedule: Q01DX009 (ip), vehicle: Klucel (hydroxypropylcellulose) (HPC)); 112 % of control (endpoint: median survival time, dose: 200.0 mg/kg/injection, schedule: Q01DX009 (ip), vehicle: Klucel (hydroxypropylcellulose) (HPC)); 96 % of control (endpoint: median survival time, dose: 400.0 mg/kg/injection, schedule: Q01DX009 (ip), vehicle: Klucel (hydroxypropylcellulose) (HPC)).

Regarding `O=C(CCc1ccc(S(=O)(=O)F)cc1)Nc1cccc(-c2nc3nc[nH]c(=O)c3[nH]2)c1`, the T/C is, setting by setting: under setting [1], 94 % of control; under setting [2], 94 % of control; under setting [3], 90 % of control.

Take `CC(C)C(C(=O)c1ccccc1)C(c1ccccc1)c1ccccc1` (configuration not stated): the T/C was 106 % of control under setting [7]; 97 % of control under setting [8]; 100 % of control (endpoint: mean survival time, dose: 400.0 mg/kg/injection, schedule: Q04DX003 (ip), vehicle: other).

For `O=c1cc(CCl)oc(Br)c1O`, the T/C (endpoint: mean survival time, dose: 25.0 mg/kg/injection, schedule: Q04DX002 (ip), vehicle: saline with Tween-80) is 98 % of control; the T/C (endpoint: mean survival time, dose: 50.0 mg/kg/injection, schedule: Q04DX002 (ip), vehicle: saline with Tween-80) is 98 % of control; the T/C (endpoint: mean survival time, dose: 100.0 mg/kg/injection, schedule: Q04DX002 (ip), vehicle: saline with Tween-80) is 91 % of control.

With `Cc1c(Cl)cccc1NC(=O)Oc1ccc(Cl)cc1Cl`, the T/C is, setting by setting: under setting [6], 95 % of control; (endpoint: mean survival time, dose: 200.0 mg/kg/injection, schedule: Q04DX003 (ip), vehicle: saline with Tween-80) 97 % of control.

With `O=C(O)C(=O)Cc1cccc(Cl)c1[N+](=O)[O-]`, the T/C is 97 % of control (endpoint: mean survival time, dose: 37.5 mg/kg/injection, schedule: Q01DX009 (ip), vehicle: saline); 103 % of control (endpoint: mean survival time, dose: 75.0 mg/kg/injection, schedule: Q01DX009 (ip), vehicle: saline); 97 % of control (endpoint: mean survival time, dose: 150.0 mg/kg/injection, schedule: Q01DX009 (ip), vehicle: saline).

Consider `N#CCN(CC#N)c1ccccc1`, for which the T/C runs as follows: (endpoint: mean survival time, dose: 1.56 mg/kg/injection, schedule: Q01DX001 (ip), vehicle: other) 95 % of control; (endpoint: mean survival time, dose: 3.13 mg/kg/injection, schedule: Q01DX001 (ip), vehicle: other) 95 % of control; (endpoint: mean survival time, dose: 6.25 mg/kg/injection, schedule: Q01DX001 (ip), vehicle: other) 98 % of control and 100 % of control.

The values above are taken from PubChem BioAssay AID256 (DTP/NCI, 2004).
